The values that follow come from US6743789B2, “Substituted imidazo[1,5-a][1,2,4]triazolo[4,3-d][1,4]benzodiazepine derivatives” (Hoffmann-La Roche Inc., priority 2000, dated 2004).

Where a name gives a salt, the structure may show the parent alone. Read-outs that look alike come from different tables or passages of the source.

For data set [1], the target named is T1, rat GABA A receptor α3β3γ2 (Rattus norvegicus, UniProt P18508+P20236).
T1 construct: expressed in transfected cells; host or cells: SF9 insect cells
Put plainly: [3H]flumazenil competition binding, GABA A α3β3γ2. As for the experimental part:
(§1) The affinity of compounds at GABA A receptor subtypes was measured by competition for [^3H]flumazenil (85 Ci/mmol; Amersham) binding to SF9 cells expressing rat receptors of composition α1β3γ2, α2β3γ2, α3β3γ2 and α5β3γ2.
(§2) Cellpellets were suspended in Krebs-tris buffer (4.8 mM KCl, 1.2 mM CaCl2, 1.2 mM MgCl2, 120 mM NaCl, 15 mM Tris; pH 7.5; binding assay buffer), homogenized by polytron for ca. 15 sec on ice and centrifuged in UZ for 30 min at 4° C. (100000 g; rotor: TFT 4594=300000 rpm). The cellpellets were resuspended in Krebs-tris buffer and homogenized by polytron for ca. 15 sec on ice. Aliquots of 1 ml were prepared, protein was measured (Bradford method) and the resulting membrane aliquots were stored at −70° C.
(§3) Radioligand binding assays were carried out in a volume of 200 μL (96-well plates) which contained 100 μL of cells, [^3H]flumazenil at a concentration of 1 nM for α1α2α3 subunits and 0.5 nM for α5 subunits and the test compound in the range of
(§4) 10^−10−3×10^−6 M. Nonspecific binding was defined by 10^−5 M diazepam and typically represented less than 5% of the total binding. Assays were incubated to equilibrium for 1 hour at 4° C. and harvested onto GF/C uni-filters (Packard) by filtration using a Packard harvester and washing with ice-cold wash buffer (50 mM Tris; pH 7.5). After drying, filter-retained radioactivity was detected by liquid scintillation counting. Ki values were calculated using Excel-Fit (Microsoft) and are the means of two determinations.

For data set [2], the target named is T2, rat GABA A receptor α1β3γ2 (Rattus norvegicus, UniProt P18508+P62813).
T2 construct: expressed in transfected cells; host or cells: SF9 insect cells
As to the kind of experiment: [3H]flumazenil competition binding, GABA A α1β3γ2. As for the experimental part:
as §1, §2, §3, §4

In data set [3] the target is T3, rat GABA A receptor α5β3γ2 (Rattus norvegicus, UniProt P18508+P19969).
T3 construct: expressed in transfected cells; host or cells: SF9 insect cells
As to the kind of experiment: [3H]flumazenil competition binding, GABA A α5β3γ2. As for the experimental part:
as §1, §2, §3, §4

In data set [4] the target is T4, rat GABA A receptor α2β3γ2 (Rattus norvegicus, UniProt P18508+P23576).
T4 construct: expressed in transfected cells; host or cells: SF9 insect cells
Put plainly: [3H]flumazenil competition binding, GABA A α2β3γ2. How it is done:
as §1, §2, §3, §4

For data set [5] the following is noted: McNamara and Skelton, Psychobiology 21:101-108; cited from earlier work.
The conditions of data set [6]: in vivo; cited from earlier work.
Where [7] appears, read: [3H]flumazenil 1 nM, SF9 cells expressing rat α3β3γ2, mean of two determinations, read-out: Ki[nM] ra3.
Where [8] appears, read: [3H]flumazenil 1 nM, SF9 cells expressing rat α1β3γ2, mean of two determinations, read-out: Ki[nM] ra1.
Setting [9] is: [3H]flumazenil 0.5 nM, SF9 cells expressing rat α5β3γ2, mean of two determinations, read-out: Ki[nM] ra5.
[10] abbreviates: [3H]flumazenil 1 nM, SF9 cells expressing rat α2β3γ2, mean of two determinations, read-out: Ki[nM] ra2.

The term Ki denotes the dissociation constant of the complex between target and ligand, obtained from inhibition or displacement. Turning to “3-Chloro-10-(5-cyclopropyl-1,2,4-oxadiazol-3-yl)-7-(1H-indol-3-ylmethyl)-9H-imidazo[1,5-a][1,2,4]triazolo[4,3-d][1,4]benzodiazepine [Example 61]”, the Ki in data set [1] (setting [7]) was 18.9 nM; in data set [2] (setting [8]), 67.3 nM; in data set [3] (setting [9]), 1.3 nM; in data set [4] (setting [10]), 53 nM.

The melting point is the temperature of the solid-liquid transition. Take `CCOC(=O)c1ncn2c1Cn1cnnc1-c1cc(OC)ccc1-2` [Example 1, Ethyl 3-methoxy-9H-imidazo[1,5-a][1,2,4]triazolo[4,3-d][1,4]-benzodiazepine-10-carboxylate]: the melting point stood at 197 °C. This compound had a Ki in data set [1] of 39.2 nM. The compound further had a Ki in data set [2] of 30.6 nM. Also, the Ki in data set [3] (setting [9]) amounted to 1.3 nM. Besides, the Ki in data set [4] was determined as 57.6 nM.

`Clc1ccc2c(c1)-c1nnc(Cc3ccccc3)n1Cc1c(-c3noc(C4CC4)n3)ncn1-2` [Example 63, 7-Benzyl-3-chloro-10-(5-cyclopropyl-1,2,4-oxadiazol-3-yl)-9H-imidazo[1,5-a][1,2,4]triazolo[4,3-d][1,4]benzodiazepine]: the Ki in data set [1] worked out at 5.6 nM; in data set [2] it was 12.5 nM; in data set [3] (setting [9]), 0.6 nM; in data set [4], 10.7 nM.

For `CCOC(=O)c1ncn2c1Cn1c(Cc3c[nH]c4ccccc34)nnc1-c1cc(Br)ccc1-2` [Example 47, Ethyl 3-bromo-7-(1H-indol-3-ylmethyl)-9H-imidazo[1,5-a][1,2,4]triazolo[4,3-d][1,4]-benzodiazepine-10-carboxylate], the melting point is 258 °C (dec.). Further, the Ki in data set [1] (setting [7]) is 100 nM. Besides, in data set [2] (setting [8]), the Ki amounted to 694 nM. Affinity in data set [3] was put at a Ki of 13.1 nM. In addition, in data set [4] (setting [10]), the inhibitory constant (Ki) was determined as 225 nM.

Compound `CCOC(=O)c1ncn2c1Cn1c(Cc3ccncc3)nnc1-c1cc(Cl)ccc1-2` (as salt: hydrochloride) [Example 69, Ethyl 3-chloro-7-(pyridin-4-ylmethyl)-9H-imidazo[1,5-a][1,2,4]triazolo[4,3-d][1,4]-benzodiazepine-10-carboxylate] had a melting point of 213 °C.

For `CCOC(=O)c1ncn2c1Cn1c(Cc3c[nH]c4c(OC)cccc34)nnc1-c1cc(OC)ccc1-2` [Example 37, Ethyl 3-methoxy-7-[(7-methoxy-1H-indol-3-yl)methyl]-9H-imidazo[1,5-a][1,2,4]triazolo[4,3-d][1,4]-benzodiazepine-10-carboxylate], the Ki came out at 162 nM in data set [1] (setting [7]), 296 nM in data set [2] (setting [8]), 8.2 nM in data set [3] (setting [9]) and 266 nM in data set [4] (setting [10]).

As to `CCOC(=O)c1ncn2c1Cn1c(Cc3ccc(-c4ccccc4)cc3)nnc1-c1cc(OC)ccc1-2` [Example 54, Ethyl 3-methoxy-7-[(biphenyl-4-yl)methyl]-9H-imidazo[1,5-a][1,2,4]triazolo[4,3-d][1,4]-benzodiazepine-10-carboxylate], the Ki in data set [1] (setting [7]) turned out to be 108 nM; in data set [2] it was 64.6 nM; in data set [3] it was 12.9 nM; in data set [4] (setting [10]), 148 nM.

Consider `COC(=O)c1cc2c(cn1)[nH]c1ccccc12` [β-CCM], for which the “spatial learning in the Morris watermaze” value in data set [5] is “enhance spatial learning”. Moreover, in data set [6], the “proconvulsant or convulsant activity” value is “proconvulsant or convulsant”.

In turn, `CCOC(=O)c1ncn2c1Cn1cnnc1-c1cc(Cl)ccc1-2` [Example 13, Ethyl 3-chloro-9H-imidazo[1,5-a][1,2,4]triazolo[4,3-d][1,4]benzodiazepine-10-carboxylate] showed a melting point of 226 to 227 °C. Also, the inhibition constant (Ki) in data set [1] was determined as 23.7 nM. For the same compound, the Ki in data set [2] was 34.9 nM. In addition, the Ki in data set [3] (setting [9]) was determined as 1.2 nM. For the same compound, the affinity in data set [4], expressed as Ki, was 55.5 nM.

As for `CCOC(=O)c1ncn2c1Cn1c(C)nnc1-c1cc(OC)ccc1-2` [Example 19, Ethyl 3-methoxy-7-methyl-9H-imidazo[1,5-a][1,2,4]triazolo[4,3-d][1,4]-benzodiazepine-10-carboxylate], the melting point amounted to 210 °C. The compound further yielded a Ki in data set [1] of 482 nM. Besides, the Ki in data set [2] was found to be 481 nM. Moreover, the inhibition constant (Ki) in data set [3] (setting [9]) is 14.5 nM. In data set [4], this compound showed a Ki of 500 nM.

`Cc1ccc2c(c1)-c1nncn1Cc1c(-c3nc(C4CC4)no3)ncn1-2` [Example 6, 10-(3-Cyclopropyl-1,2,4-oxadiazol-5-yl)-3-methyl-9H-imidazo[1,5-a][1,2,4]triazolo[4,3-d][1,4]benzodiazepine]: the melting point was 253 to 256 °C. For the same compound, the inhibitory constant (Ki) in data set [1] (setting [7]) came out at 149 nM. Further, the Ki in data set [2] (setting [8]) stood at 408 nM. The same compound returned a Ki in data set [3] of 10.8 nM. Further, the inhibitory constant (Ki) in data set [4] (setting [10]) was found to be 362 nM.

Turning to “Ethyl 3-methoxy-7-(1H-indol-3-ylmethyl)-9H-imidazo[1,5-a][1,2,4]triazolo[4,3-d][1,4]-benzodiazepine-10-carboxylate [Example 20]”, the Ki came to 191 nM in data set [1] (setting [7]), 803 nM in data set [2] (setting [8]), 10.7 nM in data set [3] (setting [9]) and 284 nM in data set [4] (setting [10]).

Turning to `CCOC(=O)c1ncn2c1Cn1c(Cc3ccncc3)nnc1-c1cc(Cl)ccc1-2` [Example 69, Ethyl 3-chloro-7-(pyridin-4-ylmethyl)-9H-imidazo[1,5-a][1,2,4]triazolo[4,3-d][1,4]-benzodiazepine-10-carboxylate], the Ki is 158 nM in data set [1] (setting [7]), 360 nM in data set [2] (setting [8]), 7 nM in data set [3] and 308 nM in data set [4] (setting [10]).

Turning to `CCOC(=O)c1ncn2c1Cn1c(Cc3cccc(OC)c3)nnc1-c1cc(Br)ccc1-2` [Example 50, Ethyl 3-bromo-7-(3-methoxy-benzyl)-9H-imidazo[1,5-a][1,2,4]triazolo[4,3-d][1,4]-benzodiazepine-10-carboxylate], the melting point lay in the range of 111 to 113 °C. Moreover, the Ki in data set [1] (setting [7]) is 220 nM. Also, in data set [2] (setting [8]), the Ki was 1000 nM. Further, the Ki in data set [3] was 14.4 nM. The Ki in data set [4] (setting [10]) came to 409 nM.

In turn, `CCOC(=O)c1ncn2c1Cn1c(CO)nnc1-c1cc(OC)ccc1-2` [Example 25, Ethyl 7-hydroxymethyl-3-methoxy-9H-imidazo[1,5-a][1,2,4]triazolo[4,3-d][1,4]-benzodiazepine-10-carboxylate] came in with a melting point of 255 °C. The Ki in data set [1] (setting [7]) was 107 nM. Moreover, the Ki in data set [2] was determined as 95.3 nM. This compound showed a Ki in data set [3] of 5.9 nM. Besides, in data set [4] (setting [10]), the Ki came to 123 nM.
